The numbers were not newly measured in publication PMC7287799 (Molecules, 2020), which cites them from elsewhere.

Usually Ki stands for the equilibrium dissociation constant of an inhibitor or competing ligand from its target.

The subject of this series is E. coli IMPDH.

In the case of `NC(=O)c1ncn([C@@H]2O[C@H](CO)[C@@H](O)[C@H]2O)c1O` [Mizoribine], the Ki is 500 nM.
